Data reported in patent publication US20070129307A1, “Insulin epitopes for the treatment of type 1 diabetes” (The University of British Columbia, priority 2001, published 2007).
“Also recorded” adds a separate entry of the source.

Columns and labels:
H-2Kd = target: T1, H-2Kd (Mus musculus, UniProt P01902); test: MHC class I stabilization assay on RMAS-Kd cells (FACS); assay type: binding; settings: background without peptide 6.07%
T1 construct: expressed in transfected cells; host or cells: RMAS (TAP-deficient murine cell line) transfected with H-2Kd
T1 sequence (P01902 22-368): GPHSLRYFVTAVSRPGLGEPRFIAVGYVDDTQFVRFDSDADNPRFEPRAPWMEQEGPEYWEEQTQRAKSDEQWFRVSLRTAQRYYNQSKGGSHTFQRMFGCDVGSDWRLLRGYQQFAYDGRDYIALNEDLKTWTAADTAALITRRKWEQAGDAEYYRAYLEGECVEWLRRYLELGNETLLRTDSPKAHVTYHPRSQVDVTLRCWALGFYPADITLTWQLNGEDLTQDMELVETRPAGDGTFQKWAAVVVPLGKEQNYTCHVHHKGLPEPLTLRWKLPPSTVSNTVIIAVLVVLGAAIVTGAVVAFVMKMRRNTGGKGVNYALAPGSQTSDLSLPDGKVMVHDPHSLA
T1 sequence (P01887 21-119 partner): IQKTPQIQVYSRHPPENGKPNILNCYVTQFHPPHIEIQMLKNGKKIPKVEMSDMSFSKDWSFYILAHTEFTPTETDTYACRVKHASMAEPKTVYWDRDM
Description: A peptide (for example, TUM, V7, INSL, TV1, TV2, or TV3) is added and the cells are incubated at room temperature for 1 hour, and then incubated at 37° C. for 3 hours. The cells are washed 3 times with 0.3% bovine serum albumin-phosphate buffer solution (BSA-PBS), and then stained with fluorescently labelled anti-mouse H-2Kd-FITC antibody. Fluorescent-activated cell sorting (FACS) analysis is performed to count the percentage of cells showing positive staining.
FACS analysis was performed to quantify the percentage/proportion of antigen presenting cells (RMAS-Kd) that express stable MHC class I on their cell surface, in association with the TV1 peptide. RMAS-Kd is a transporter for antigen presentation (TAP)-deficient RMAS cell line transfected with the mouse MHC class I molecule, H-2Kd. Because the cell line is TAP deficient it cannot assemble MHC class I (in this case H-2Kd) complexes stably but requires surface stabilisation by exogenous peptides that can bind with the H-2Kd heavy chain and beta-2 microglobulin. The cell line was stained for MHC class I expression with or without TV1 peptide.

[1] = test system: autoreactive T cells in NOD pancreatic islets; test: Interferon-gamma ELISPOT with T cells of NOD pancreatic islets; assay type: cell-based, mouse; settings: FIG. 5
NOD mice = test: Peptide immunisation of NOD mice, diabetes onset; assay type: in vivo, mouse; settings: by week 18; 100 μg peptide intraperitoneally from 3 weeks of age; diabetic = two consecutive blood sugars >15 mM
Description: Peptides are administered to female NOD mice in accordance with standard laboratory methods.
Three groups of NOD mice (n=10 per group, purchased from Taconic, Germantown, N.Y., U.S.A.) were immunised beginning at three weeks of age with 100 μg of TUM, NRP-A7, or TV1 (MTV-1) peptide in PBS solution, intraperitoneally once per week for two weeks, then once every two weeks. Mice were monitored for hyperglycaemia weekly and considered to be diabetic after two consecutive blood sugars >15 mM.

HLA-A*0201 [2] = target: T2, HLA-A*0201 (Homo sapiens, UniProt P04439, D140Y/D185E/D98H/E176V/E277Q/G131W/G231S/I119V/I121R/I166T/I218V/L300P/L318F/N151K/N90K/P208A/P217A/Q86G/Q94H/R138H/R169H/T345S); test: Temporal stability (dissociation) of peptide/HLA-A*0201 complexes on T2 cells; assay type: binding; settings: in 4 hours at 37° C., T2 cells with emetine, normalized to CMV/HLA-A2
T2 construct: cell membrane stabilization of the HLA-A2 molecule in TAP-deficient 174×CEM.T2 cells; endogenous in cells; host or cells: 174×CEM.T2 (T2) cells, TAP-deficient
Description: The stability of complexes formed with the peptides and HLA-A2 on T2 cells was assessed, over a 4-hour period at 37° C. After peptide removal and addition of emetine to inhibit protein synthesis, T2 cells were cultured at 37° C. and the HLA-A2 expression was determined at different incubation times using anti-HLA-A2 antibody. The stability of the various peptide/HLA-A2 complexes were then normalized relative to that observed for CMV/HLA-A2 complexes set as 100%.
The temporal stability of peptide/HLA-A*0201 complexes was assessed as previously described (Valmori, supra). Briefly, T2 cells were cultured with synthetic peptides overnight at room temperature as performed for peptide binding assay. The following day, after removing peptide and adding emetine (10^−4 M; Sigma-Aldrich, Oakville, Ontario, Canada) to block protein synthesis, cells were incubated at 37° C. for the indicated time periods. At each time point, an aliquot of cells was washed and stained with FITC-conjugated anti-HLA-A2 monoclonal antibody (BB7.2). Surface HLA-A2 expression was assessed by flow cytometry (FACSCalibur) and MFI was recorded. The CMV peptide was used as a positive control. Results are expressed as relative complex stability =100×[(MFI with given peptide—MFI without peptide)/(MFI with CMV peptide—MFI without peptide)].

[3] = test system: HLA-A2 restricted CD8+ T cells (PBMC); settings: for T cell responses in diabetic patients and controls: non-diabetic and non-HLA matched controls
[4] = test system: CTL from pancreatic islets of NOD mice; test: H-2Kd tetramer staining of NOD islet cells; assay type: cell-based, mouse; settings: H-2Kd tetramers, islet cells ex vivo or after in vitro culture, FIG. 12
Text: MHC class I tetramers (for example, H-2Kd tetrameric complexes) are synthesised as previously described by Altman et al. (Science 274:94-96, 1996). MHC heavy chain, modified by the addition of a C-terminal biotinylation site, and beta 2 microglobulin are expressed separately in E. coli (BL21, Stratagene, La Jolla, Calif., U.S.A.). Peptides were synthesized synthesised on a Perkin-Elmer-ABI 431A by the NAPS Unit, University of British Columbia, BC, Canada. Purified heavy chain, beta 2 microglobulin and peptide are refolded at 4° C. for 48 hours in a TRIS-based buffer, and the refolded product is concentrated, biotinylated using BirA enzyme (Avidity, Denver, Colo., U.S.A.) in the presence of biotin, ATP and Mg++ and purified by FPLC. Streptavidin-phycoerythrin conjugate is added in a 1:4 molar ratio and the tetrameric product is concentrated to approximately 1 mg/ml. The tetramer concentration is calculated based upon the concentration of biotinylated protein, quantified by Bradford assay, prior to addition of streptavidin.
Single cell suspensions of lymphocytes are incubated with 1 μl of a 1 mg/ml solution of MHC tetramer for 2-3 hours at 4° C. in FACS staining buffer (HBSS/FBS 2%/Sodium Azide 0.01%/EDTA 100 mM). The cells are centrifuged and washed three times before staining with antibody to CD8. […]

[5] = test system: murine autoreactive T cells (NOD spleen cells); test: Interferon-gamma ELISPOT with NOD spleen cells; assay type: cell-based, mouse
Text: The effector cells (CTL) of the ELISPOT assay are contained within spleen cells from NOD mice aged 10 weeks. The spleens from these mice contain a proportion of autoreactive CTL destined to destroy pancreatic beta cells.
The peptide NRP-V7 was used as a positive control and is a previously described synthetic autoepitope (automimotope) of NOD mice (Amrani et al., 2000). NRP-V7 was not derived from any endogenous mammalian protein sequence but was identified by screening combinatorial peptide libraries. The peptide TUM was used as a negative control. TUM is derived from an endogenous tumour peptide not known to participate in type 1 diabetes but known to bind to the MHC class I molecule, H-2Kd.

[6] = test system: human autoreactive T cells (PBMC); test: Interferon gamma ELISPOT of PBMC from type 1 diabetes patients (Example 5); assay type: cell-based; settings: 1 μM peptide, PBMC 20,000 per well, recent onset type 1 diabetes patients, FIG. 8
HLA-A*0201 [7] = target: T2, HLA-A*0201; test: FACS assay of peptide binding to HLA-A2 on T2 cells (Example 6)

## LYLVCGERG [INSL]
H-2Kd
  proportion of H-2Kd on the surface of the APC in the presence of peptide: 73.68%
H-2Kd; listed as INS-L
  proportion of H-2Kd on the surface of the APC in the presence of peptide: 73%
[1]
  interferon-gamma secretion by autoreactive T cells in NOD pancreatic islets: minimally

## NRP-A7: positive control peptide; known synthetic peptide autoantigen recognized in the context of H-2Kd (KYNKANAFL; NRP-A7 peptide)
NOD mice
  immunized mice considered diabetic: 20%

## RLLCALTSL [IGRP293]
HLA-A*0201 [2]
  dissociation of peptide/HLA-A2 complexes: about 20%
[3]; second study
  T cell responses in diabetic patients and controls: could not be detected

## KYPAVLLIL (modified version of precursor peptide TV1 (TV2))
H-2Kd
  proportion of H-2Kd on the surface of the APC in the presence of peptide: 58%
[4]
  recognition by CD8+ T cells (tetramer staining): recognize

## KLPAVLLIL (mTV-1 peptide epitope) [TV1]
H-2Kd
  proportion of H-2Kd on the surface of the APC in the presence of peptide: 64%
[5]; FIG. 1
  recognition by murine autoreactive T cells (interferon-gamma secretion): recognise
[5]; FIG. 1, listed as TV-1
  recognition by murine autoreactive T cells (interferon-gamma secretion): high frequency of CTL that recognise TV-1
NOD mice
  immunized mice considered diabetic: 80%

## RLLPLLALL (mouse insulin derived peptide) [TV3]
H-2Kd
  proportion of H-2Kd on the surface of the APC in the presence of peptide: 70%

## DLMGYIPLV [HCV, reference compound]
[3]; first study, all subjects
  subjects responding to the peptide: None of the subjects responded

## TUM: negative control; derived from an endogenous tumour peptide, known to bind H-2Kd (KYQAVTTTL)
H-2Kd
  proportion of H-2Kd on the surface of the APC in the presence of peptide: 66%
NOD mice
  immunized mice considered diabetic: none

## KLQVFLIVL (HTV-1 peptide epitope) [IAPP5]
[6]
  recognition by human autoreactive T cells (interferon-gamma ELISPOT): elevated HTV1 autoreactivity; also recorded: recognise
HLA-A*0201 [7]; FIG. 11, listed as HTV 1
  binding to HLA-A2: bind to HLA-A2
HLA-A*0201 [7]; FIG. 11, listed as HTV1
  binding to HLA-A2: binds

## LLPPLLEHL [IA-2(180)]
[3]; second study
  T cell responses in diabetic patients and controls: could not be detected

## KYNKANVFL [NRP-V7, positive control]
H-2Kd
  proportion of H-2Kd on the surface of the APC in the presence of peptide: 72%
H-2Kd; listed as V7
  proportion of H-2Kd on the surface of the APC in the presence of peptide: 72.71%
[5]; FIG. 1
  recognition by murine autoreactive T cells (interferon-gamma secretion): Interferon-gamma is also secreted; also recorded: recognise
[1]
  interferon-gamma secretion by autoreactive T cells in NOD pancreatic islets: secrete interferon-gamma

## ALWMRLLPL [Insulin2]
HLA-A*0201 [2]
  dissociation of peptide/HLA-A2 complexes: about 20%
[3]; second study
  non-diabetic control subjects that responded: three of the five

## GMAELMAGL [Phogrin331]
HLA-A*0201 [2]
  dissociation of peptide/HLA-A2 complexes: about 20%
[3]; second study
  T cell responses in diabetic patients and controls: could not be detected
